In patent US20180252712A1, “RECEPTOR FOR NOROVIRUS AND USES THEREOF” (priority 2017, published 2018):

What was measured:
[1] = test system: MNoV^CW3; assay: CRISPR screen in BV2-Cas9 cells, sgRNA enrichment after MNoV^CW3 infection; type: cell-based, murine norovirus; settings: for log2 fold enrichment after MNV infection relative to mock infected cells, CW3 MOI 0.05: MNoV^CW3, MOI 0.05, ten days post-infection; for log2 fold enrichment after MNV infection relative to mock infected cells, CW3 MOI 5: MNoV^CW3, MOI 5, ten days post-infection
Procedure: (§1) BV2 cells were transduced with pXPR_101 (Addgene plasmid 52962) and selected with blasticidin for eleven days. Cas9 activity was assessed by transducing parental BV2 or BV2-Cas9 cells with pXPR_011 (Addgene plasmid 59702), expresses eGFP and a sgRNA targeting eGFP at an MOI<1 [1]. Cells were transduced for 2 days and subsequently, selected for five days with puromycin and the frequency of eGFP expression was assessed by flow cytometry. The mouse ASIAGO sgRNA CRISPR library contains six independent genome wide pools which each pool containing a unique sgRNA targeting each of 20,077 mouse genes. Four ASIAGO pools were independently used to generate the BV2 library (Doench et al submitted). Each ASIAGO pool was delivered by lentiviral transduction of 5×10^7 BV2 cells at an MOI ˜0.2. This equates to 1×10^7 transduced cells, which is sufficient for the integration of each sgRNA 500 independent times. Two days post transduction, puromycin was added to the media and transduced cells were selected for five days. For each experimental condition, 1×10^7 BV2-Cas9 cells containing sgRNAs were seeded in a T175 tissue culture flask. Cells were infected with either MNoV^CW3 or MNoV^CR6 at MOls of 0.05 and 5. Mock infected cells were harvested 48 hrs after seeding and served as a reference for sgRNA enrichment analysis. Ten days post-infection genomic DNA was isolated from surviving cells using a Qiamp DNA mini kit according to manufacturer instructions (Qiagen).
(§2) Illumina sequencing and STARS analysis was performed as described previously (Doench et al, in press). Briefly, genomic DNA was aliquoted into multiple wells of a 96-well plate with up to 10 μg of DNA in 50 μl total volume. A PCR mastermix consisting of ExTaq DNA polymerase (Clontech), ExTaq buffer, dNTP, P5 stagger primer, and water was generated. 40 μl of PCR master mix, and 10 μl of a barcoded primer was added to each well containing 50 μl of DNA. Samples were PCR amplified as follows: 95° C. for 1 min., followed by 28 cycles of 94° C. for 30 sec., 52.5° C. for 30 sec., 72° C. for 30 sec. with a final 10 min. at 72° C. PCR product was purified with Agencourt AMPure XP SPRI beads according to the manufacture's protocol (Beckman Coluter). Samples were sequenced on an Illumina HiSeq 2000. Barcodes in the P7 primer were deconvuluted and the sgRNA sequence was mapped to a reference file of sgRNAs in the ASIAGO library. To normalize for different numbers of reads per condition, read counts per sgRNA were normalized to 10^7 total reads per sample. This normalized value was then log-2 transformed. sgRNAs that were not sequenced were arbitrarily assigned a read count of 1. sgRNA frequencies were then analyzed using STARS software, which is available at broadinstitute.org/rnai/public/software/index (Doench et al, in press). STARS computes a score for each gene of rank-ordered sgRNA hits that was above […] of total sequenced sgRNAs. A STAR score was only assigned to genes that scored above this threshold in at least two of four independent genome wide pools.

[2] = test system: MNoV^CR6; assay: CRISPR screen in BV2-Cas9 cells, sgRNA enrichment after MNoV^CR6 infection; type: cell-based, murine norovirus; settings: for log2 fold enrichment after MNV infection relative to mock infected cells, CR6 MOI 0.05: MNoV^CR6, MOI 0.05, ten days post-infection; for log2 fold enrichment after MNV infection relative to mock infected cells, CR6 MOI 5: MNoV^CR6, MOI 5, ten days post-infection
Procedure: as §1, §2

[3] = test system: MNoV^CW3; assay: MNoV binding assay to BV2 cells (bound genomes by qPCR); type: cell-based, murine norovirus
Procedure: MNoV^CW3 quantitiatve PCR (qPCR) was performed as previously described. Briefly, 5 μl of extracted viral RNA was used for cDNA synthesis using random hexamers and ImProm Reverse Transcriptase (Promega, Madison, Wis.) in 20 μl total volume. TaqMan qPCR was performed in triplicate on each sample and standard with forward primer SEQ ID NO:20 (5′ […] 3′), reverse primer SEQ ID NO:21 (5′ GCGCTGCGCCATCACTC 3′), and probe.
MNoV^CW3 binding to BV2 cells was performed for 1 hour at 4° C. in 0.5 ml complete growth media. sCD300lf was incubated with MNoV^CW3 for 30 minutes at room temperature prior to addition to cells. α-CD300lf was incubated with cells for 30 minutes at 4° C. prior to the addition of MNoV^CW3. BV2 cells were used at final concentration of 2×10^6 cells/ml, and MNoV^CW3 was used at a final concentration of 1.6×10^9 copies/ml (2.5×10^6 PFU/ml). Cells were centrifuged at 500 g for 5 min at 4° C. to remove unbound virus. Cells were washed with four 1.0 ml washes with PBS containing 2.5% FBS and 2 mM EDTA. The cell pellet was resuspended in 100 μl PBS, and RNA was extracted with the ZR Viral RNA kit (Zymo Research) according to manufacturer instructions. qPCR was performed as described above. Binding experiments were done in triplicate in each of at least three independent experiments. A condition containing virus but no cells was used to determine assay background.
To determine the effect of glycans on MNoV binding, parental BV2 cells, ΔCD300lf BV2 clone 1 cells complemented with an empty lentivirus, and ΔCD300lf BV2 clone 1 cells complemented with CD300lf were cultured in the presence of 1 μg/ml of kifunensine (Santa Cruz Biotechnology) for at least 48 hours prior to use. Kifunensine activity was determined by staining cells with FITC-conjugated wheat germ agglutinin (WGA) at 1 μg/ml final concentration (Sigma Aldrich). The reduction in glycosylation was determined by comparing the mean fluorescence intensity (MFI) with and without kifunensine treatment. WGA binding was determined at the time of each binding assay.

[4] = test system: MNoV^CW3; assay: Spleen-derived MNoV neutralization (plaque assay); type: cell-based, murine norovirus; settings: 75 PFU spleen-derived or BV2-derived virus, 10 μg/ml, 30 min preincubation
Procedure: BV2 cells were seeded at 1×10^6 cells/well of a six-well plate. 16-24 hours later, media was removed and 10-fold dilutions of cell lysate is applied to each well for 1 hour with gentle rocking. Viral inoculum was removed and 2 ml of overlay media was added (MEM, 10% FBS, 2 mM L-Gluatmine, 10 mM HEPES, and 1% methylcellulose). Plates were incubated for 2-3 days prior to visualization with crystal violet solution (0.2% crystal violet and 20% ethanol).
To isolate in vivo derived MNoV^CW3, five 7-8 week old C57BL/6J were inoculated PO with 10^6 PFU MNoV^CW3 in 25 μl PBS. Three days post inoculation, mice were sacrificed and spleens were harvested. Spleens were processed by bead beating with 1 mm silica beads (Biospec, Bartlesville, Okla.) for 1 minute. The spleen extract was centrifuged for 5 minutes at 3,000 g, the supernatant was filtered through a 0.22 μm filter, frozen at −80° C., and titered on BV2 cells as described previously.
75 PFU of either BV2 cell-derived or spleen-derived MNoV^CW3 was incubated for 30 min. at room temperature with either sCD300lf or WNV E DIII at 10 μg/ml final concentration in 100 μl total volume of D10. Each sample was then added to a confluent monolayer of BV2 cells in a 6-well plate and incubated for 1 hr. at room temperature. […] Complete media containing methylcellulose was then added and plaque formation was assessed as described previously. […]

[5] = test system: MNoV^CW3; assay: Challenge of STAT1−/− mice with preincubated MNoV^CW3, survival; type: in vivo, murine norovirus; settings: PO 10^3 or 10^5 PFU MNoV^CW3 preincubated at 10 μg/ml, 28 days
Procedure: B6.129S(Cg)-Stat1^tm1Div/J (STAT1^−/−) mice and C57BL/6J (Jackson Laboratories, Bar Harbor, Me.) and Fut2^−/− (B6.129X1-Fut2^tm1Sdo/J) mice (a generous gift from Dr. Alexander V. Chervonsky) were housed in a specific-pathogen free environment at Washington University. The care and use of all animals was approved by and in accordance with the Washington University Animal Studies Committee. For the challenge of STAT^−/− mice, MNoV^CW3 was incubated with sCD300lf or WNV E DIII at a final concentration of 10 μg/ml for 30 minutes at room temperature. STAT1^−/− mice were challenged with 25 μl PO of 10^3 or 10^5 PFU of MNoV^CW3 diluted in D10. STAT1^−/− mice were singly housed immediately after inoculation and monitored daily for survival for 28 days. Experiments were performed three independent times with gender-balanced littermate controls at both 10^3 and 10^5 PFU challenge doses.

[6] = test system: MNoV^CW3; assay: BMDM infection, FACS for intracellular MNoV NS1/2 expression; type: cell-based, murine norovirus; settings: virus preincubated with sCD300lf or cells treated with α-CD300lf; MOI 5.0
Procedure: BL6 myeloid progenitors were obtained from mice (FIG. 2E) or from HoxB8-immortalized progenitors (FIG. 2D) as previously described.HoxB8-immortalized progenitors were maintained in RPMI 1640 supplemented with 1 μM β-estradiol and 25 ng/ml GM-CSF. Progenitors were differentiated into macrophages by washing the cells in PBS and plating 1×10^6 cells into BMDM media (Dulbeco's Modified Eagle Medium, 10% fetal bovine serum, 5% horse serum, 10% CMG14-12 [6], 1 mM sodium pyruvate, 2 mM L-glutamine). After 7 days of differentiation, macrophages were dissociated and 5×10^6 cells/well were seeded into a 6-well dish. Three days later, MNoV^CW3 was added to cells at an MOI of 5.0. One day post infection, MNoV NS1/2 expression was detected by flow cytometry.
Infected cells were fixed and permeabilized with Cytofix/Cytoperm (BD biosciences) Rabbit polyclonal antibody targeting the MNoV nonstructural protein NS1/2 antibody was added at a 1:5000 dilution (Gift from Vernon Ward). Cells were incubated for 30 min. at room temperature. Cells were then washed and DyLight 649 donkey anti-rabbit IgG was added and incubated for 30 min. Cells were then washed and analyzed on an LSRII flow cytometer (BD). At least 20,000 events were collected per condition. Each experiment was performed in triplicate in each of three independent experiments.

[7] = test system: MNoV^CW3; assay: MNoV neutralization with α-CD300lf and sCD300lf (cytotoxicity, CellTiter-Glo); type: cell-based, murine norovirus; settings: virus preincubated with protein, 0.01 to 10 μg/ml; 24 hours post-infection
Procedure: MNoV neutralization was assessed by measuring cytotoxicity. 2.5×10^4 BV2 cells were plated per well of a 96-well plate. For antibody-mediated neutralization, cells were then incubated for 1 hour at 37° C. with polyclonal α-CD300lf (R&D systems AF2788) or an isotype control (R&D systems AB-108-C) at a final concentration from 0.01 to 10 μg/ml. MNoV^CW3 was then added at an MOI of 5 in a total volume of 100 μl. After 24 hours at 37° C., 25 μl of CellTiter-Glo (Promega) was added per well to measure cellular ATP concentrations. For sCD300lf neutralization, the assay was performed similarly except that 1.25×10^5 PFU of MNoV^CW3 was incubated with sCD300lf or a control protein (Domain III of West Nile Virus Envelope) at a final concentration from 0.01 μg to 10 μg/ml prior to addition of BV2 cells. Relative luminescence units were detected on Molecular Devices SpectraMax M2 plate reader. All conditions were normalized to an uninfected control. Each condition was done in quadruplicate in each of three independent experiments.

## CTACGCAAATCAGGACCAGG: sgRNA used in screen, matches CD300lg (listed as DNA, chemistry not given here)
[1]
  log2 fold enrichment after MNV infection relative to mock infected cells, CW3 MOI 0.05: −6.4 log2 fold enrichment
  log2 fold enrichment after MNV infection relative to mock infected cells, CW3 MOI 5: −6.4 log2 fold enrichment
[2]
  log2 fold enrichment after MNV infection relative to mock infected cells, CR6 MOI 0.05: −6.4 log2 fold enrichment
  log2 fold enrichment after MNV infection relative to mock infected cells, CR6 MOI 5: −6.4 log2 fold enrichment

## GCTACTTACCTGGGAGGAAA: sgRNA used in screen, matches CD300lh (listed as DNA, chemistry not given here)
[1]
  log2 fold enrichment after MNV infection relative to mock infected cells, CW3 MOI 0.05: −5.9 log2 fold enrichment
  log2 fold enrichment after MNV infection relative to mock infected cells, CW3 MOI 5: −5.9 log2 fold enrichment
[2]
  log2 fold enrichment after MNV infection relative to mock infected cells, CR6 MOI 0.05: −5.9 log2 fold enrichment
  log2 fold enrichment after MNV infection relative to mock infected cells, CR6 MOI 5: −5.9 log2 fold enrichment

## CATAGGTCACTGTAAAGGTG: sgRNA used in screen, matches CD300la (listed as DNA, chemistry not given here)
[1]
  log2 fold enrichment after MNV infection relative to mock infected cells, CW3 MOI 0.05: −7.2 log2 fold enrichment
  log2 fold enrichment after MNV infection relative to mock infected cells, CW3 MOI 5: −7.2 log2 fold enrichment
[2]
  log2 fold enrichment after MNV infection relative to mock infected cells, CR6 MOI 0.05: −7.2 log2 fold enrichment
  log2 fold enrichment after MNV infection relative to mock infected cells, CR6 MOI 5: −7.2 log2 fold enrichment

B1: sCD300lf: recombinant, soluble ectodomain of mouse CD300lf (residues 20-128 of GenBank AAH57864.1), expressed in E. coli and refolded (protein)
chain: MEDPVTGPEEVSGQEQGSLTVQCRYTSGWKDYKKYWCQGVPQRSCKTLVETDASEQLVKKNRVSIRDNQRDFIFTVTMEDLRMSDAGIYWCGITKGGLDPMFKVTVNIGP
[3]; BV2ΔCD300lf cells, cells treated with α-CD300lf or virus premixed with sCD300lf
  MNoV^CW3 binding to BV2ΔCD300lf cells: not further inhibited
[3]; wild type BV2 cells, cells treated with α-CD300lf or virus preincubated with sCD300lf, 1 hour at 4° C.
  MNoV^CW3 binding to BV2 cells: reduced MNoV binding
[4]
  Neutralization of MNoV isolated from spleens of MNoV^CW3-infected mice (plaque assay): remained sensitive to sCD300lf inhibition
[5]
  Protection from MNoV induced lethality (survival): able to protect from MNoV induced lethality
[6]
  MNoV^CW3 infection of primary bone marrow-derived macrophages (NS1/2 expression by FACS): inhibited
[7]
  MNoV^CW3-induced cytopathic effect in BV2 cells (cell viability): neutralized MNoV^CW3-induced cytopathic effect
